Measurements reported in publication doi:10.1101/2021.09.30.462449v1 (biorxiv, 2021).

Legend:
Assay in all cases: biochemical
Conditions in all cases: read-out: % inhibition mean (Adapta)
CDK4/cyclin D1 = CDK4/cyclin D1 (Homo sapiens, UniProt P11802)
CDK4/cyclin D3 = CDK4/cyclin D3 (Homo sapiens, UniProt P11802)
CDK6/cyclin D1 = CDK6/cyclin D1 (Homo sapiens, UniProt Q00534)
CDK9/cyclin T1 = CDK9/cyclin T1 (Homo sapiens, UniProt P50750)
CHUK (IKK alpha) = CHUK (IKK alpha) (Homo sapiens, UniProt O15111)
DAPK1 = DAPK1 (Homo sapiens, UniProt P53355)
Sequence of DAPK1 (P53355 whole entry): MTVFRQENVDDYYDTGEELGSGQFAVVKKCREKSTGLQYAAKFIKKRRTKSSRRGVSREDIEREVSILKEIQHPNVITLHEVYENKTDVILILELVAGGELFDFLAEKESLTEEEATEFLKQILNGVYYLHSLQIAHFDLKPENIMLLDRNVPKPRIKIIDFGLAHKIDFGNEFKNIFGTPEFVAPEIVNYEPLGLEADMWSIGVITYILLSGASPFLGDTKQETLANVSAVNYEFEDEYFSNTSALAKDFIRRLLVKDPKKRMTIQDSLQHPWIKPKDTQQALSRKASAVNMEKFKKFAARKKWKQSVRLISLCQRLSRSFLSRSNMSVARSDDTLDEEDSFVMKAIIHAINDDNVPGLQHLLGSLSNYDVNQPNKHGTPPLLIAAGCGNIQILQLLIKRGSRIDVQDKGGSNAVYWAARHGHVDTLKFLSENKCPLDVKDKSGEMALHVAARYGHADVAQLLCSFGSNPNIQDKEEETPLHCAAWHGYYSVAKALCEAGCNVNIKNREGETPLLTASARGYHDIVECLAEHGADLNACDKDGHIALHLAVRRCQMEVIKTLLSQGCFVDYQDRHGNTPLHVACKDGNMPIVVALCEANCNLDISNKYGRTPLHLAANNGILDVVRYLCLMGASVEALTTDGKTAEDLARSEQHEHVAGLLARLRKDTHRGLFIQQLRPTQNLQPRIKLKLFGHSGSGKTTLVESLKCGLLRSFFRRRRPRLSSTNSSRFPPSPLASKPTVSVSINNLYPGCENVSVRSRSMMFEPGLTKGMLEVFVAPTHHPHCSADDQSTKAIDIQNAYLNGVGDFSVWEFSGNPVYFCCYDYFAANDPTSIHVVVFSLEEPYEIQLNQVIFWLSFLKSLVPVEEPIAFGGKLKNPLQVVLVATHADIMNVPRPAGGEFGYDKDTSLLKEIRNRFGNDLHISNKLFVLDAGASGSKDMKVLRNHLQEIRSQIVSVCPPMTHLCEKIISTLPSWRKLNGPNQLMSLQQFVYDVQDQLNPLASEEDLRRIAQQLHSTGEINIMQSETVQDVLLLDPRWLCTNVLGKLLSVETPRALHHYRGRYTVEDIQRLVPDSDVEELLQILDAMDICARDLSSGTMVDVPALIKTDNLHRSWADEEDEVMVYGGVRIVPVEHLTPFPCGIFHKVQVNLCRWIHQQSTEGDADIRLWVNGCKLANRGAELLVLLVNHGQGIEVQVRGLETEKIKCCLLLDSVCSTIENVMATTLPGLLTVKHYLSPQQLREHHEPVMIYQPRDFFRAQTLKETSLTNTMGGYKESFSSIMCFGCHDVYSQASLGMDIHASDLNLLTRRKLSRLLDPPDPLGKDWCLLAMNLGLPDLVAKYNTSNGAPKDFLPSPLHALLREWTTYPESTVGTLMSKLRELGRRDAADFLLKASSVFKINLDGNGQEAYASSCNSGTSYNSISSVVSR

GSG2 (Haspin) = GSG2 (Haspin) (Homo sapiens, UniProt Q8TF76)
LRRK2 = LRRK2 (Homo sapiens, UniProt Q5S007)
Sequence of LRRK2 (Q5S007 whole entry): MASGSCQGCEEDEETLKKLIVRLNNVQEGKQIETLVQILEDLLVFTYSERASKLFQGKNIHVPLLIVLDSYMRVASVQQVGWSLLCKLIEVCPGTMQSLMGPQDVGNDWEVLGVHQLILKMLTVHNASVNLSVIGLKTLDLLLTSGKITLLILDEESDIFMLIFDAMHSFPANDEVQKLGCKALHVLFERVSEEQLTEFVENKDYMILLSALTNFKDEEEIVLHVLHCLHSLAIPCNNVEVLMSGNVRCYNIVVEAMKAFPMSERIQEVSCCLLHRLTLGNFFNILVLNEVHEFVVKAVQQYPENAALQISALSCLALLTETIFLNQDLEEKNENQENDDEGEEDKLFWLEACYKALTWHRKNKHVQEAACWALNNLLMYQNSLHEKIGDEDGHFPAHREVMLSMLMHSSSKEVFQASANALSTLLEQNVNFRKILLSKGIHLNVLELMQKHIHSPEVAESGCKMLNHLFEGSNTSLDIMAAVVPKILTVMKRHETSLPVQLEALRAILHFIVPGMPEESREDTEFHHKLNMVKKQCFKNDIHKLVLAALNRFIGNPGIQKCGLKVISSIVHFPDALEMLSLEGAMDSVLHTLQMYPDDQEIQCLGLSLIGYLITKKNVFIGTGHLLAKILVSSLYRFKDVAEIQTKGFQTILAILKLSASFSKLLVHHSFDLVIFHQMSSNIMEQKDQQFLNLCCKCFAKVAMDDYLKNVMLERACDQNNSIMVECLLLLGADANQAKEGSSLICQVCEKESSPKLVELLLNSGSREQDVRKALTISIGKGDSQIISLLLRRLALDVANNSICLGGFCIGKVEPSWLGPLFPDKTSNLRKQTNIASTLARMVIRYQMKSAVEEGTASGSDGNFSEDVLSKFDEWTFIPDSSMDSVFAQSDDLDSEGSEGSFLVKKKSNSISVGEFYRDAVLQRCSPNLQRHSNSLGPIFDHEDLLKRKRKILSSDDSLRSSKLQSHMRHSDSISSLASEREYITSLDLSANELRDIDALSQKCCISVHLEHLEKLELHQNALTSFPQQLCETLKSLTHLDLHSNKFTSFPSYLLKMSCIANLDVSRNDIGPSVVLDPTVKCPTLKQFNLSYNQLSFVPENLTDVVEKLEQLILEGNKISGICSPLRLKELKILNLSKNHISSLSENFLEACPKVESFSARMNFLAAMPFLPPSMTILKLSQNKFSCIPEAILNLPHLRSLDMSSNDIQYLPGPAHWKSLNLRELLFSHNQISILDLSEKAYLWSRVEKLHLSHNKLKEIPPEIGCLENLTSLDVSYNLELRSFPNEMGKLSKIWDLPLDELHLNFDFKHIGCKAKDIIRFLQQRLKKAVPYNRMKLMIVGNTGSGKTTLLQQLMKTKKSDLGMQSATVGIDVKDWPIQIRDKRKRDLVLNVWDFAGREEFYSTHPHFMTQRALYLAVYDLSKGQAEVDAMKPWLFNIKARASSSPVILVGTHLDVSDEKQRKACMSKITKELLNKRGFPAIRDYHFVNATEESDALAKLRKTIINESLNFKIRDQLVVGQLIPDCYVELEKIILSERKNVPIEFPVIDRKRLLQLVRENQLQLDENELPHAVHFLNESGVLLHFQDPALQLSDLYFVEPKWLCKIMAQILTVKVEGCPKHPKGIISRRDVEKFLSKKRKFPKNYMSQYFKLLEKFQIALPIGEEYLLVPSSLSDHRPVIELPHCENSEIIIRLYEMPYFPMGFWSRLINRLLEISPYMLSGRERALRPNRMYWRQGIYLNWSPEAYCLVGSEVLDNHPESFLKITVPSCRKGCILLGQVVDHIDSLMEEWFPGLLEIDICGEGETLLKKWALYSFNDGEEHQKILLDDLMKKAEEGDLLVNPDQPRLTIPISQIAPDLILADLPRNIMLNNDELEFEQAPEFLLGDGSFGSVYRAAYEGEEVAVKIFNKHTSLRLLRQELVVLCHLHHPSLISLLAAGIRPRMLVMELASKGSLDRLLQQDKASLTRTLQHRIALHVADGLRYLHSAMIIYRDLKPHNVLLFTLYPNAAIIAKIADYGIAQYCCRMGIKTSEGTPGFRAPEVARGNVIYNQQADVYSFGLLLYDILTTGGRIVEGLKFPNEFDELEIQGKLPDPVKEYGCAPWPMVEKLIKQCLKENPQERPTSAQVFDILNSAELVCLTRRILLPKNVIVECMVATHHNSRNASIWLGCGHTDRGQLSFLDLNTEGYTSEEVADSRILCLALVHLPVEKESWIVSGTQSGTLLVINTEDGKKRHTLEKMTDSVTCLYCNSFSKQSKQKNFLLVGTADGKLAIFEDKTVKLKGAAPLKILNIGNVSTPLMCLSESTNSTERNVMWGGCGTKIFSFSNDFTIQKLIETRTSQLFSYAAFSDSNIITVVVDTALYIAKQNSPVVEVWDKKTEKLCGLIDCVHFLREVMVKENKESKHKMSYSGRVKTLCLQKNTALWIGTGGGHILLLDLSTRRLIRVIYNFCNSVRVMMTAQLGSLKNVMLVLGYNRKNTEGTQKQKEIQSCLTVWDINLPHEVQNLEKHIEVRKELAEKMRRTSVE

LRRK2 G2019S = LRRK2 G2019S (Homo sapiens, UniProt Q5S007, G2019S)
Sequence of LRRK2 G2019S (Q5S007 whole entry G2019S): as the sequence (Q5S007 whole entry) above, with G2019S counted along it

LRRK2 R1441C = LRRK2 R1441C (Homo sapiens, UniProt Q5S007, R1441C)
Sequence of LRRK2 R1441C (Q5S007 whole entry R1441C): as the sequence (Q5S007 whole entry) above, with R1441C counted along it

NUAK1 (ARK5) = NUAK1 (ARK5) (Homo sapiens, UniProt O60285)
PI4KA (PI4K alpha) = PI4KA (PI4K alpha) (Homo sapiens, UniProt P42356)
PI4KB (PI4K beta) = PI4KB (PI4K beta) (Homo sapiens, UniProt Q9UBF8)
PIK3C2A (PI3K-C2 alpha) = PIK3C2A (PI3K-C2 alpha) (Homo sapiens, UniProt O00443)
PIK3C2B (PI3K-C2 beta) = PIK3C2B (PI3K-C2 beta) (Homo sapiens, UniProt O00750)
PIK3C2G (PI3K-C2 gamma) = PIK3C2G (PI3K-C2 gamma) (Homo sapiens, UniProt O75747)
PIK3C3 (hVPS34) = PIK3C3 (hVPS34) (Homo sapiens, UniProt Q8NEB9)
[1] = biological target: PIK3CA/PIK3R1 (p110 alpha/p85 alpha) (Homo sapiens, UniProt P42336)
[2] = biological target: PIK3CA/PIK3R3 (p110 alpha/p55 gamma) (Homo sapiens, UniProt P42336)
[3] = biological target: PIK3CB/PIK3R1 (p110 beta/p85 alpha) (Homo sapiens, UniProt P42338)
[4] = biological target: PIK3CB/PIK3R2 (p110 beta/p85 beta) (Homo sapiens, UniProt P42338)
PIK3CG (p110 gamma) = PIK3CG (p110 gamma) (Homo sapiens, UniProt P48736)
PIP4K2A = PIP4K2A (Homo sapiens, UniProt P48426)
PIP5K1A = PIP5K1A (Homo sapiens, UniProt Q99755)
PIP5K1B = PIP5K1B (Homo sapiens, UniProt O14986)
PIP5K1C = PIP5K1C (Homo sapiens, UniProt O60331)
Sequence of PIP5K1C (O60331 whole entry): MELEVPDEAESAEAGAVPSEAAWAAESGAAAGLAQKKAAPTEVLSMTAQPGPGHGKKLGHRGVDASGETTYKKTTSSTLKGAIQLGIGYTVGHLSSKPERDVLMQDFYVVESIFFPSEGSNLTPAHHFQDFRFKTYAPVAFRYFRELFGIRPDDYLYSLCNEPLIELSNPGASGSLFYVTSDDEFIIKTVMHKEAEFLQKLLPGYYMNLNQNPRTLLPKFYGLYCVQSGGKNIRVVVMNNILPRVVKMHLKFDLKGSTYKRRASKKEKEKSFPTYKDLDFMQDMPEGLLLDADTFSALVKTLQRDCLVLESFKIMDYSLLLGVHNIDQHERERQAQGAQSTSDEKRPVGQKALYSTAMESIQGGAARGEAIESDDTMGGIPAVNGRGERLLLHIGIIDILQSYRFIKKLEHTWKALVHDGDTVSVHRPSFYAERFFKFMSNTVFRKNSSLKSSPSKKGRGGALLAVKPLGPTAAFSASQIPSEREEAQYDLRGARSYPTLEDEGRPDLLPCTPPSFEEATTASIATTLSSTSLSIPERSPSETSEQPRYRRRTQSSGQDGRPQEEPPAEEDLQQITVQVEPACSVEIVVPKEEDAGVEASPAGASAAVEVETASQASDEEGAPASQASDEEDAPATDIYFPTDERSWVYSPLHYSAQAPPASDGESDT

SPHK1 = SPHK1 (Homo sapiens, UniProt Q9NYA1)
Sequence of SPHK1 (Q9NYA1 whole entry): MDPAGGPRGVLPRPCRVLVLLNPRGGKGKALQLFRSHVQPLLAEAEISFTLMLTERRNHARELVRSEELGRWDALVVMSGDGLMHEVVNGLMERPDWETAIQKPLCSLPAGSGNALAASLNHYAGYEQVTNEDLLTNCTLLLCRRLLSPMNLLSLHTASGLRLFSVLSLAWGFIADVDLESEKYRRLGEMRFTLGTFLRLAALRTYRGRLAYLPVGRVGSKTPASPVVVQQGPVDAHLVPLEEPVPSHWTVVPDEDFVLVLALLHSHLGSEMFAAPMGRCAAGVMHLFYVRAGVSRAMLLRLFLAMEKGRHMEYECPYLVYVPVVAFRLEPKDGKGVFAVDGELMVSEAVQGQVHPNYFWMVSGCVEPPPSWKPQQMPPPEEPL

SPHK2 = SPHK2 (Homo sapiens, UniProt Q9NRA0)

`COc1ccc2nc3cc(Cl)ccc3c(Nc3cc(CN4CCCC4)c(O)c(CN4CCCC4)c3)c2n1` [Pyronaridine, 4-[(7-Chloro-2-methoxybenzo[b][1,5]naphthyridin-10-yl)amino]-2,6-bis(1-pyrrolidinylmethyl)phenol phosphate (1:4)] showed an inhibition at 1 µM (CDK4/cyclin D1) of 1%, an inhibition at 1 µM (CDK4/cyclin D3) of -6% and an inhibition at 1 µM (CDK6/cyclin D1) of 1%. The inhibition at 1 µM (CDK9/cyclin T1) was 5%, the inhibition at 1 µM (CHUK (IKK alpha)) was 0% and the inhibition at 1 µM (DAPK1) was 11%. It also gave an inhibition at 1 µM (GSG2 (Haspin)) of 9%, an inhibition at 1 µM (LRRK2) of -2% and an inhibition at 1 µM (LRRK2 G2019S) of 4%. It also gave an inhibition at 1 µM (LRRK2 R1441C) of -7%, an inhibition at 1 µM (NUAK1 (ARK5)) of 11% and an inhibition at 1 µM (PI4KA (PI4K alpha)) of 0%. For the same compound, the inhibition at 1 µM (PI4KB (PI4K beta)) was 5%, the inhibition at 1 µM (PIK3C2A (PI3K-C2 alpha)) was -1% and the inhibition at 1 µM (PIK3C2B (PI3K-C2 beta)) was -5%. The inhibition at 1 µM (PIK3C2G (PI3K-C2 gamma)) was 3%, the inhibition at 1 µM (PIK3C3 (hVPS34)) was -4% and the inhibition at 1 µM [1] was 7%. For the same compound, the inhibition at 1 µM [2] was 1%, the inhibition at 1 µM [3] was -11% and the inhibition at 1 µM [4] was -2%. For the same compound, the inhibition at 1 µM (PIK3CG (p110 gamma)) was 2%, the inhibition at 1 µM (PIP4K2A) was 15% and the inhibition at 1 µM (PIP5K1A) was -6%. For the same compound, the inhibition at 1 µM (PIP5K1B) was -11%, the inhibition at 1 µM (PIP5K1C) was -3% and the inhibition at 1 µM (SPHK1) was 10%. For the same compound, the inhibition at 1 µM (SPHK2) was -5%.
